The source made the active and inactive calls. The rule behind the calls is not given here.

One assay has as its system T47D. The assay is described as follows: Cell viability of human T47D cells by trypan blue exclusion assay. It counts as functional, cell-based.
A word on the IC50: it is the midpoint of a concentration-inhibition curve. A higher IC50 goes with weaker potency. The compound `COc1cc(NCCC(=N)N)c2nccc(C)c2c1Oc1cccc(C(F)(F)F)c1` had a half-inhibitory concentration (IC50) of 0.519 µM.

Take `COc1cc(NCCCN)c2nccc(C)c2c1Oc1cccc(C(F)(F)F)c1`: the 50% inhibitory concentration (IC50) amounted to 0.119 µM. Still for that read-out and setting: with `CCOC(=N)CCNc1cc(OC)c(Oc2cccc(C(F)(F)F)c2)c2c(C)ccnc12` the figure was 1.97 µM; with `COc1cc(NCc2cnc[nH]2)c2nccc(C)c2c1Oc1cccc(C(F)(F)F)c1`, 1.28 µM. The compound `COc1cc(NCc2cccs2)c2nccc(C)c2c1Oc1cccc(C(F)(F)F)c1` returned an IC50 of 3.73 µM. Consider `COc1cc(NCc2ccco2)c2nccc(C)c2c1Oc1cccc(C(F)(F)F)c1`, for which the IC50 was determined as 0.0156 µM. Still for that read-out and setting: with `COc1cc(NCCC#N)c2nccc(C)c2c1Oc1cccc(C(F)(F)F)c1` the figure was 0.378 µM.

Another assay concerns T47D. Put plainly: Cell viability of human T47D cells at 10 uM by trypan blue exclusion assay. The assay is classed as functional, cell-based.
With `COc1cc(N)c2nccc(C)c2c1Oc1cccc(C(F)(F)F)c1`, the outcome was inactive.

The values above are taken from ChEMBL document CHEMBL1150339, “Synthesis and anti-breast cancer activities of substituted quinolines” (Bioorg Med Chem Lett, 2008).
